Laboratory results taken from patent US20040092890A1, “Catheter lock solution including a photo-oxidant” (priority 2003, published 2004).

Columns and labels:
Enterobacter Faecalis = experiment: Effect of methylene blue on concentration of a gram positive organism without light exposure (FIG. 3); format: cell-based
Experimental: FIG. 3 is a representation of the effect of methylene blue (12 mg/100 ml) on concentration of a gram positive organism, Enterobacter Faecalis, without light exposure.
(§1) In a series of tests, with a gram negative and a gram positive organism, methylene blue inactivated all bacteria within 1 day, while heparin and a 4% concentration of citrate caused no effect on gram positive organisms (FIGS. 2, 3). Methylene blue also advantageously colors the lock solution blue, which provides a useful tool to medical personnel in preventing confusion between the lock solution and any other solution that might be present in a syringe or the catheter.
FIG. 3 is a representation of the effect of methylene blue (12 mg/100 ml) on concentration of a gram positive organism, Enterobacter Faecalis, without light exposure. […] It is expected that illumination will augment bacterial killing by methylene blue even more.

[1] = Relative density of citrate solutions (FIG. 6); format: physicochemical
Source text: It is of course understood that the densities of citrate solutions increase as the concentrations of citrate therein increase.
The densities of various formulations of various catheter lock solutions are directly related to the citrate concentration, as reflected in the linear graph set forth in FIG. 6.

gram negative bacteria = conditions: large numbers of bacteria; cited from earlier work
Escherichia Coli = experiment: Effect of methylene blue on concentration of a gram negative organism without light exposure (FIG. 2); format: cell-based
Experimental: FIG. 2 is a graph depicting the effect of methylene blue (12 mg/100 ml) on concentration of a gram negative organism, Escherichia Coli, without light exposure.
as §1
FIG. 2 is a representation of the effect of methylene blue (12 mg/100 ml) on concentration of a gram negative organism, Escherichia Coli, without light exposure. […] It is expected that illumination will augment bacterial killing by methylene blue even more.

gram-negative organisms = experiment: Killing of gram-negative organisms by methylene blue 0.01%; conditions: methylene blue 0.01% (10 mg/100 mL)
[2] = methylene blue 12 mg/100 ml, without light exposure

## O=C(O)CC(O)(CC(=O)O)C(=O)O [citrate]
Enterobacter Faecalis; 4% concentration of citrate
  Effect on gram positive organisms: no effect
[1]; 23% citrate
  Relative density: 1.120
[1]; citrate concentration of 0.24M
  Relative density: about 1.045
Gram negative bacteria
  Time until all gram negative bacteria are killed: 1 to 7 days

## CN(C)c1ccc2nc3ccc(=[N+](C)C)cc-3sc2c1 [methylene blue]
Escherichia Coli; gram negative organism
  Time to inactivate all bacteria: ≤ 1 days
Escherichia Coli; [2]
  Killing of E. Coli: All E. Coli are killed within one day
Enterobacter Faecalis; gram positive organism
  Time to inactivate all bacteria: ≤ 1 days
Enterobacter Faecalis; [2]
  Killing of Enterobacter Faecalis: All Enterobacter are killed within one day
gram-negative organisms
  Killing of gram-negative organisms: kill gram-negative organisms within one day

## heparin
Enterobacter Faecalis; heparin
  Effect on gram positive organisms: no effect
